# Laboratory results as given in patent publication US9943528B2 (MAPREG, priority 2016, dated 2018).
# Key:
# [1] = biological target: T1, human progesterone receptor (PR) (Homo sapiens, UniProt P06401); test: Test of progesterone receptor antagonist activity (MMTV-luciferase transactivation with progesterone 1 nM); format: cell-based; details: HEK293T cells, progesterone 1 nM plus increasing amounts; FIG. 2
# T1 construct: expressed in transfected cells; host or cells: HEK293T
# T1 sequence (P06401 1-933): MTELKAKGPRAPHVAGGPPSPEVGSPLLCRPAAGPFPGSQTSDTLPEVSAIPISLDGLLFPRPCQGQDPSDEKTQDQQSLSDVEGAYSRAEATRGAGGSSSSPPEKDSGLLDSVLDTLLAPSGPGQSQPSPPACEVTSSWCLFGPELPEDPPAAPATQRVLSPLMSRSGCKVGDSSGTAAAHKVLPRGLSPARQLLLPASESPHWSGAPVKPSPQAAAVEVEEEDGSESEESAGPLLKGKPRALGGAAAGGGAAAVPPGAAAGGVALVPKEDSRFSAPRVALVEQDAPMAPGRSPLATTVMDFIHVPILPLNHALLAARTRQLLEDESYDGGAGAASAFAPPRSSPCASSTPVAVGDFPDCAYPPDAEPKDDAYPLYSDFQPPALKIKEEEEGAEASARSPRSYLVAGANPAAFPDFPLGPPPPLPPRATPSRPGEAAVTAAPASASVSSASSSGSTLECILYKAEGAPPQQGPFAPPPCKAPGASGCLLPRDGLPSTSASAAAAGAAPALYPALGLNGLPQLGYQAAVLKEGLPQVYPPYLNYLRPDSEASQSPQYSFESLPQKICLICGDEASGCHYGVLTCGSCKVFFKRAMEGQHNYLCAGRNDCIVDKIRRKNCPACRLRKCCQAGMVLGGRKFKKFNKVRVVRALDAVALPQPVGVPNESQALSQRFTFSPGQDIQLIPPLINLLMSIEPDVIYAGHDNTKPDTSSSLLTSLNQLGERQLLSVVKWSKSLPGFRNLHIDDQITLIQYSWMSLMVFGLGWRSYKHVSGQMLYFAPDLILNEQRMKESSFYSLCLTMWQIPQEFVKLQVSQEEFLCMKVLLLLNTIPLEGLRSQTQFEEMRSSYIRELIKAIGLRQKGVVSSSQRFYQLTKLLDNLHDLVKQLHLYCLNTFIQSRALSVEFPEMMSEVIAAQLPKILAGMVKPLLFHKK
# Description: The main experimental setting used is the following: HEK293T cells were transiently transfected, using calcium phosphate precipitation technology, with expression vectors pSG5hPR (which permits expression of human progesterone receptor (PR)), pFC31-luc (contains the luciferase gene under the control of the MMTV promoter, which is in turn activated by binding of a progestin to progesterone receptor) and pcbetagal (which permits expression of betagalactosidase), and cultured during 24 hours with increasing amounts of various compositions:
# Test of progesterone receptor […] activity: transfected cells were cultured with progesterone (1 nM) and increasing amounts of RU486 (a well-known progesterone receptor antagonist) or 3-methoxy-pregnenolone.
# With this setting, a compound with progesterone receptor antagonist activity competes with progesterone for the occupation of progesterone receptor and results in a progressive loss of transactivation activity when the amount of this compound is increased compared to progesterone.
# [2] = tested on: 80 different CNS neurotransmitters receptors; test: Screen for in vitro affinity to 80 different CNS neurotransmitters receptors; details: 80 CNS neurotransmitters receptors, validated binding assays
# Excerpt: MAP4343 has been screened for in vitro affinity to 80 different CNS neurotransmitters receptors using various validated binding assays.
# Wistar Kyoto (WKY) rats = test: Open-field arena (OFA) in WKY rats, acute treatment; format: in vivo, rat; details: MAP4343 10 mg/kg s.c., fluoxetine 10 mg/kg i.p., ketamine 30 mg/kg i.p.
# Description: After a 6-day period of acclimatization, all experimental groups received daily successive subcutaneous (250 μl per rat) and intraperitoneal (1 ml/kg) injections. WI rats received injection of vehicle (sesame oil+saline) while WKY rats were randomly assigned to […] experimental groups, as follow: KWY rats receiving only vehicle (sesame oil+saline) and WKY rats treated with MAP4343 (10 mg/kg, s.c.; rats received in parallel i.p. injections of saline), fluoxetine (10 mg/kg i.p., rats received in parallel s.c. injections of sesame oil) or ketamine (30 mg/kg, i.p.; rats received in parallel s.c. injections of sesame oil) (see FIG. 3).
# (§1) After, a 6-day period of acclimatization, the acute phase of treatment started for 4 days during behavioral tests were performed (FIG. 3). All animals were injected 1 h 30 before the starting of behavioral test.
# The animals were individually placed in the open field arena (OFA) (70×100×70 cm), with a central square (35×50 cm), located in a 50 lux illuminated room and videotaped during 3 min using a computerized system (VideoTrack V2.5, ViewPoint, Lyon, France).
# OFA allows firstly the evaluation of total locomotor activity (LMA) thereby measuring the total distance travelled in the arena (in cm). Secondly, measurements of the activity in the center of the arena like (i) the number of entries in the center of arena and (ii) the total time spent in the center of arena (in sec) provide cues of anxiety-like behavior (Prut and Belzung, 2003). All these behavioral parameters were instantaneously measured automatically with the VideoTrack V2.5 software from the videos.
# Wistar (WI) rats = test: Forced swimming test (FST) in WI rats, dose-ranging; format: in vivo, rat; details: FIG. 6A
# Description: as §1
# Rats were submitted to the forced swimming test (FST), according the procedure initially described by (Detke et al., 1995) and slightly modified by (Bianchi et al., 2002). Briefly, rats were individually placed into a Plexiglas cylinder (40 cm height, 20 cm diameter) containing 25 cm of water at 25±1° C., under 50 lux illumination. After a pre-test session of 15 min, rats were removed, dried and returned to its housed cage. Twenty-four hours after the pre-test session, rats were still placed in the swim cylinder (under identical conditions) for the 5-min test session. The pre-test and test sessions were recorded using a video camera placed above the cylinder for subsequent behavioral analysis. The immobility time (in sec) was blindly measured by two independent experimenters from recorded videos. Rats were considered as immobile when none activity was observed other than that required to keep the rat's head above the water.
# MAP2 = test: Binding (affinity) by displacement of PREG-3H
# [3] = tested on: tree shrews exposed to chronic psychosocial stress; details: 4-week daily administration; cited from earlier work
smiles,measurement,setting,value
"CO[C@H]1CC[C@@]2(C)C(=CC[C@H]3[C@@H]4CC[C@H](C(C)=O)[C@@]4(C)CC[C@@H]32)C1 [MAP4343, 3β-methoxy-pregna-5-ene-20-one]",progesterone receptor antagonist activity (loss of transactivation),[1],weak progesterone receptor antagonist
same,in vitro affinity for the tested receptors,[2],no significant affinity for any tested receptor
same,"locomotor activity (total distance travelled in the open-field arena), change vs WKY receiving vehicle","Wistar Kyoto (WKY) rats; 3 min, FIG. 5A",did not modify significantly the locomotor activity
same,"number of entries in the central square of OFA, change vs WKY receiving only vehicle",Wistar Kyoto (WKY) rats; FIG. 5B,+289%
same,time spent in the center of open-field vs WKY receiving vehicle,Wistar Kyoto (WKY) rats; FIG. 5C,did not modify the low time spent in central square of arena
same,"immobility time in FST, change vs WI receiving vehicle alone",Wistar (WI) rats; MAP4343 10 mg/kg,−27%
same,"immobility time in FST, change vs WI receiving vehicle alone",Wistar (WI) rats; MAP4343 15 mg/kg,−31%
same,"immobility time in FST, dose-ranging effect","Wistar (WI) rats; MAP4343 1, 5, 10 and 15 mg/kg",dose-dependent reduction of immobility time
same,Affinity,MAP2,100% of PREG
same,"hormone hypersecretion, hypothermia and sleep disturbances",[3],"prevent hormone hypersecretion, hypothermia and sleep disturbances"
same,stress-triggered avoidance behavior,[3],abolish stress-triggered avoidance behavior
